From US10975060B2, “High relaxivity gadolinium chelate compounds for use in magnetic resonance imaging” (BAYER PHARMA AKTIENGESELLSCHAFT, priority 2016, dated 2021)

What was measured:
Format in all cases: physicochemical
[1] = Relaxivity measurements at 1.4 T (MiniSpec mq60, 60 MHz, 37 °C) in water and human plasma; settings: 1.41 T, normalized to Gd
Method: Relaxivity Measurements at 1.4 T
Relaxivity measurements at 1.41 T were performed using a MiniSpec mq60 spectrometer (Bruker Analytik, Karlsruhe, Germany) operating at a resonance frequency of 60 MHz and a temperature of 37° C. The T1 relaxation times were determined using the standard inversion recovery (IR) method with a fixed relaxation delay of at least 5×T1. The variable inversion time (TI) was calculated automatically by the standard software of the MiniSpec mq60 (8 steps). The T2 measurements were done by using a Carr-Purcell-Meiboom-Gill (CPMG) pulse sequence, applying a relaxation delay of at least 5×T1.
Each relaxivity measurement was performed using three different Gd concentrations (3 concentrations between 0.05 and 2 mM). The T1 and T2 relaxation times of the example compounds 1 to 10 were measured in different media for example in water and human plasma. Human plasma preparation: For each experiment fresh blood was taken from a volunteer using 10 mL citrate-tubes (Sarstedt S-Monovette 02.1067.001, 10 mL, Citrate). The 10 mL citrate-tubes were carefully inverted 10 times to mix blood and anticoagulant and centrifuged for 15 minutes at 1811 g at room temperature (Eppendorf, Centrifuge 5810R).
The relaxivities ri (where i=1, 2) were calculated on the basis of the measured relaxation rates Ri in water and plasma: Ri=Ri(0)+ri[CGd], where Ri(0) represent the relaxation rate of the respective solvent and CGd the concentration of the compound normalized to the Gadolinium. The Gadolinium concentrations of the investigated solutions were verified by Inductively Coupled Plasma Mass Spectrometry (ICP-MS Agilent 7500a, Waldbronn, Germany).

[2] = Relaxivity measurements at 3.0 T (whole body MRI scanner, 37 °C) in water and human plasma; settings: normalized to Gd, average ± standard deviation
Method: Relaxivity Measurements at 3.0 T
Relaxivity measurements at 3.0 T were performed with a whole body 3.0 T MRI Scanner (Philips Intera, Philips Healthcare, Hamburg, Germany) using a knee-coil (SENSE-Knee-8, Philips Healthcare, Hamburg, Germany). The sample tubes (CryoTubetm Vials, Thermo Scientific 1.8 mL, Roskilde, Denmark) were positioned in 3 rows of 4 and 5 tubes in a plastic holder in a box filled with water. The temperature was adjusted to 37° C. For the MRI sequence the shortest possible echo-time (TE) with 7.46 milliseconds was used. The inversion times were chosen to optimize the sequence to measure T1 values corresponding to the estimated T1 range of all relaxation times of contrast media containing solutions. The following inversion times (TIs) were applied: 50, 100, 150, 200, 300, 500, 700, 1000, 1400, 2100, 3200, and 4500 milliseconds. The sequence was run with a constant relaxation delay of 3.4 seconds after the registration of the last echo (variable TR in the range from 3450 to 7900 milliseconds). For details of the fit procedure, see Rohrer et. al. (Invest. Radiol. 2005; 40, 11: 715-724). The experimental matrix of the phantom measurement was 320×320.
The relaxivities were evaluated using three different concentrations of each compound (3 concentrations between 0.05 and 2 mM).
The T1 relaxation times of Example compounds were measured in water and human plasma. Human plasma preparation: For each experiment fresh blood was taken from a volunteer using 10 mL citrate-tubes (Sarstedt S-Monovette 02.1067.001, 10 mL, Citrate). The 10 mL citrate-tubes were carefully inverted 10 times to mix blood and anticoagulant and centrifuged for 15 minutes at 1811 g at room temperature (Eppendorf, Centrifuge 5810R).
The relaxivities ri (where i=1, 2) were calculated on the basis of the measured relaxation rates Ri in water and plasma: Ri=Ri(0)+ri[CGd], where Ri(0) represent the relaxation rate of the respective solvent and CGd the concentration of the compound normalized to the Gadolinium (Table 2).

[3] = Water solubility (exploratory, 10 mM Tris-HCl, 20 °C); settings: water (10 mM Tris-HCl buffer), pH 7.4
Method: The exploratory water solubilities of the compounds were determined at room temperature (20° C.) in 0.5 mL buffer solution (10 mM Tris-HCl) in the microcentrifuge tubes (Eppendorf, 2.0 mL safe-lock caps). The solid compounds were added stepwise to the buffer solution. The suspension was mixed using a shaker (Heidolph Reax 2000) and treated 5 min in an ultrasound bath (Bandelin, Sonorex Super RK255H).

[4] = Dynamic CT diffusion phantom study (dialysis cassette in fetal bovine serum); settings: dialysis cassette 20,000 MWCO, 20 mmol Gd/L, CT signal over 30 h
Method: The described dynamic CT diffusion study compares the ability of Examples 1-10 and Reference compounds 1 and 4 to pass a semipermeable membrane (20 kDa). A 128-row clinical CT device (SOMATOM Definition, 128; Siemens Healthcare, Forchheim, Germany) was used to monitor the diffusion through a semipermeable membrane at 100 kV and 104 mA. Single measurements were performed at 0 min, 1 min, 2 min, 3 min, 5 min, 10 min, 15 min, 20 min, 30 min, 45 min, 60 min, 2 h, 3 h, 5 h, 7 h, 22 h, 24 h, 30 h after placing the dialysis cassette (Slide-A-Lyser, 20,000 MWCO, 0.1-0.5 mL Capacity, Thermo Scientific, Roskilde, Denmark) filled with contrast agent in fetal bovine serum solution (FBS, Sigma, F7524). The images were reconstructed with a slice thickness of 2.4 mm and a B30 convolution kernel. The used concentration in the dialysis cassettes of the investigated Examples 1-10 and Reference compounds 1 and 4 was 20 mmol Gd/L.
The imaging results for all investigated Examples and the Reference compounds 1 and 4 for the time points 0 min and 30 h after placing the cassettes in the FBS solution are depicted in FIG. 1. For image analysis, regions of interest were manually drawn on 1 centrally located slice for each time point (a representative measurement region is indicated in FIG. 1: Image RC1).

Compound: CC(C)N(CC(=O)NCC(CNC(=O)CN(C(=O)CN1CCN(CC(=O)[O-])CCN(CC(=O)[O-])CCN(CC(=O)[O-])CC1)C(C)C)(CNC(=O)CN(C(=O)CN1CCN(CC(=O)[O-])CCN(CC(=O)[O-])CCN(CC(=O)[O-])CC1)C(C)C)CNC(=O)CN(C(=O)CN1CCN(CC(=O)[O-])CCN(CC(=O)[O-])CCN(CC(=O)[O-])CC1)C(C)C)C(=O)CN1CCN(CC(=O)[O-])CCN(CC(=O)[O-])CCN(CC(=O)[O-])CC1.[Gd+3].[Gd+3].[Gd+3].[Gd+3] [Example 5, Tetragadolinium [4,10-bis(carboxylatomethyl)-7-{3,13-diisopropyl-8,8-bis({[(isopropyl-{[4,7,10-tris(carboxylatomethyl)-1,4,7,10-tetraazacyclododecan-1-yl]acetyl}amino)-acetyl]amino}methyl)-2,5,11,14-tetraoxo-15-[4,7,10-tris(carboxylatomethyl)-1,4,7,10-tetraazacyclododecan-1-yl]-3,6,10,13-tetraazapentadec-1-yl}-1,4,7,10-tetraazacyclo-dodecan-1-yl]acetate]
- r1 human plasma ([1]; human plasma): 13.1 L/mmol/s
- r1 water ([1]; water): 11.1 L/mmol/s
- r1 human plasma ([2]; human plasma): 11.6 ± 0.4 L/mmol/s
- r1 water ([2]; water): 10.2 ± 0.1 L/mmol/s
- Solubility [3]: >1000 mg/100 mL
- Diffusion half-live (20 kDa) [4]: 10.8 h
